Measured values from patent US20240016781A1, “TREATMENT OF KRAS MUTANT CANCERS” (MEI Pharma, Inc., priority 2020, published 2024).
Values joined by “and” are separate entries in the source; they are usually repeats but may differ in a detail not shown here. Equal values may be shown once. Read-outs that look alike come from different tables or passages of the source.

Tests used:
Assay in all cases: 72-hour CellTiter-Glo 2.0 growth inhibition screen (single agent, 9x9 combination dose matrix)
Type in all cases: cell-based
Panc 04.03 = conditions: for Response Area: Panc 04.03, Pancreas
Experimental: (§1) Growth inhibition was determined using a 72-hour CellTiter-Glo®2.0 proliferation assay. Combination format was a 9×9 dose matrix. Six of the 20 cell lines received the original two combinations whilst the remaining 14 cell lines received two additional combinations resulting in four combinations in total. Results have been supplied as both Chalice Analyzer files (.mcc) and raw luminescence data.
(§2) Cell lines that have been preserved in liquid nitrogen are thawed and expanded in growth media (see Appendix I). Once cells have reached expected doubling times, screening begins. Cells are seeded in 25 μl of growth media in black 384-well tissue culture treated plates at 500 cells per well (as noted in Analyzer). Cells are equilibrated in assay plates via centrifugation and placed at 37° C. 5% CO2 for twenty-four hours before treatment. […] Compounds are transferred to assay plates using and Echo acoustic liquid handling system. […] of each compound was added at the appropriate concentration for all combination dose points. Therefore, final assay volume would be 25.05 μl. Assay plates are incubated with compound for 3 days and are then analyzed using CellTiter-Glo 2.0. All data points are collected via automated processes and are subject to quality control and analyzed.
(§3) If T≥V_0:100*(1−(T−V_0)/(V−V_0)) • where T is the signal measure for a test article, V is the untreated/vehicle-treated control measure, and Vo is the untreated/vehicle control measure at time zero (also colloquially referred as TO plates). This formula is derived from the Growth Inhibition calculation used in the National Cancer Institute's NCI-60 high throughput screen. For the purposes of this disclosure, all data analysis was performed in Growth Inhibition (except where noted).
(§4) Inhibition is also provided as a measure of cell viability. […] Inhibition of 100% represents no doubling of cell numbers during the treatment window. Both cytostatic and cytotoxic treatments can yield an Inhibition percentage of 100%. Inhibition percentage is calculated as the following: […]
(§5) The fractional inhibition for each component agent and combination point in the matrix is calculated relative to the median of all untreated/vehicle-treated control wells. The Synergy Score equation integrates the experimentally-observed activity volume at each point in the matrix in excess of a model surface numerically derived from the activity of the component agents using the Loewe model for additivity. Additional terms in the Synergy Score equation (above) are used to normalize for various dilution factors used for individual agents and to allow for comparison of synergy scores across an entire experiment. The inclusion of positive inhibition gating or an Idata multiplier removes noise near the zero-effect level, and biases results for synergistic interactions at that occur at high activity levels. Combinations with higher maximum Growth Inhibition (GI) effects or those which are synergistic at low concentrations will have higher Synergy Scores.
(§6) The CI is a rough estimate of how much drug was needed in combination relative to the single agent doses required to achieve the chosen effect level. CI values in the range of 0.5-0.7 are typical for in vitro measurements of current clinical combinations. The CI error (σCI) is calculated using standard error propagation through the CI calculation based on the isobologram errors. In the Chalice Analyzer, the Best CI is reported from the many CI values calculated for each Icut crossing combination. Among all the measured CI values, the one with the largest single-to-noise level (1−CI)/σCI is reported as the Best CI. Best CI Level is the effect level from which the CI is calculated.

SW48 KRAS (G12C/+) = conditions: for Response Area: Colorectal
Experimental: as §1, §2, §3, §4, §5, §6

Gp2D = conditions: for EC50: GP2d; for EC50 / Response Area / Emax: Colorectal; for Response Area / Emax: Gp2D
Experimental: as §1, §2, §3, §4, §5, §6

HCC1171 = test system: HCC1171
Experimental: as §1, §2, §3, §4, §5, §6

TOV-21G = test system: TOV-21G
Experimental: as §1, §2, §3, §4, §5, §6

[1] = Panc 04.03 (KRAS G12D), enhancer + MEI-522 (Voruciclib), 72 h
[2] = Additional Single Agent Responses (inhibition, % I), 72 h
[3] = growth inhibition (GI), AUC, single agent, 72 h
[4] = enhancer combined with MEI-522 (Voruciclib), Panc 04.03 (Pancreas), 72 hours, inhibition data
[5] = SW48 KRAS (G12C/+), enhancer + MEI-522 (Voruciclib), 72 h
[6] = enhancer combined with MEI-522 (Voruciclib), SW48 KRAS (G12C/+) (Colorectal), 72 hours, inhibition data
[7] = Gp2D (KRAS G12D), enhancer + MEI-522 (Voruciclib), 72 h
[8] = enhancer combined with MEI-522 (Voruciclib), Gp2D (Colorectal), 72 hours, inhibition data
[9] = HCC1171 (KRAS G12C), enhancer + MEI-522 (Voruciclib), 72 h
[10] = HCC1171, Lung, Additional Single Agent Responses (inhibition, % I), 72 h
[11] = enhancer combined with MEI-522 (Voruciclib), HCC1171 (Lung), 72 hours, inhibition data
[12] = TOV-21G (KRAS G13C), enhancer + MEI-522 (Voruciclib), 72 h
[13] = enhancer combined with MEI-522 (Voruciclib), TOV-21G (Ovary), 72 hours, inhibition data

C=CC(=O)N1CCN(c2nc(=O)n(-c3c(C)ccnc3C(C)C)c3nc(-c4c(O)cccc4F)c(F)cc23)[C@@H](C)C1 [AMG510]
EC50 (Panc 04.03; Homo sapiens, Panc 04.03, 72 h): 3000 nM | Emax (Panc 04.03; Homo sapiens, Panc 04.03, 72 h, read-out: Max Response (% GI)): 25% | Emax (Panc 04.03; Homo sapiens, Panc 04.03, 72 h, read-out: Max Response (% I)): 19% | Best CI (Panc 04.03; [1]): 0.51 | Bliss Volume (Panc 04.03; [1]): 2.52 | HSA volume (Panc 04.03; [1]): −2.59 | Loewe Volume (Panc 04.03; [1]): 2.70 | Synergy Score (Panc 04.03; [1]): 3.01 | Response Area (Panc 04.03; [2]): 0.00 | Response Area (Panc 04.03; [3]): 0.00 | Best CI (Panc 04.03; [4]): 0.60 | Best CI Level (Panc 04.03; [4]): 20 | Bliss Volume (Panc 04.03; [4]): 0.79 | HSA volume (Panc 04.03; [4]): −2.11 | Loewe Volume (Panc 04.03; [4]): 1.18 | Synergy Score (Panc 04.03; [4]): 1.06 | HSA volume (SW48 KRAS (G12C/+)): 5.42 and 3.57 | Loewe Volume (SW48 KRAS (G12C/+)): 4.73 | EC50 (SW48 KRAS (G12C/+); Homo sapiens, SW48, 72 h): 2.1 nM | Emax (SW48 KRAS (G12C/+); Homo sapiens, SW48, 72 h, read-out: Max Response (% GI)): 36% | Emax (SW48 KRAS (G12C/+); Homo sapiens, SW48, 72 h, read-out: Max Response (% I)): 29% | Response Area (SW48 KRAS (G12C/+); SW48 KRAS (G12C/+), Additional Single Agent Responses (inhibition, % I), 72 h): 1.47 | Response Area (SW48 KRAS (G12C/+); SW48 KRAS (G12C/+), growth inhibition (GI), AUC, single agent, 72 h): 1.78 | Best CI (SW48 KRAS (G12C/+); [5]): 0.36 | Synergy Score (SW48 KRAS (G12C/+); [5]): 5.97 | Best CI (SW48 KRAS (G12C/+); [6]): 0.62 | Best CI Level (SW48 KRAS (G12C/+); [6]): 60 | EC50 (Gp2D; 72 h, Additional Single Agent Responses (inhibition, % I)): 2560 nM | EC50 (Gp2D; 72 h, growth inhibition (GI) curve, single agent): 2550 nM | Best CI (Gp2D; [7]): 0.47 | Bliss Volume (Gp2D; [7]): 1.60 | HSA volume (Gp2D; [7]): −1.47 | Loewe Volume (Gp2D; [7]): 1.40 | Synergy Score (Gp2D; [7]): 2.14 | Response Area (Gp2D; [2]): 0.42 | Emax (Gp2D; Additional Single Agent Responses, 72 h, read-out: Max Response (% I)): 13% | Response Area (Gp2D; [3]): 0.55 | Emax (Gp2D; growth inhibition (GI), single agent, 72 h, read-out: Max Response (% GI)): 18% | Best CI (Gp2D; [8]): 0.90 | Best CI Level (Gp2D; [8]): 20 | Bliss Volume (Gp2D; [8]): 0.54 | HSA volume (Gp2D; [8]): −1.21 | Loewe Volume (Gp2D; [8]): 0.47 | Synergy Score (Gp2D; [8]): 0.43 | Best CI (HCC1171; [9]): 0.26 | Bliss Volume (HCC1171; [9]): 3.26 | HSA volume (HCC1171; [9]): 4.61 | Loewe Volume (HCC1171; [9]): 6.02 | Synergy Score (HCC1171; [9]): 7.42 | EC50 (HCC1171; [10]): 2.8 nM | Response Area (HCC1171; [10]): 1.99 | Emax (HCC1171; HCC1171, Lung, Additional Single Agent Responses, 72 h, read-out: Max Response (% I)): 48% | GI50 (HCC1171; HCC1171, Lung, growth inhibition (GI) curve, single agent, 72 h): 5.5 nM | Response Area (HCC1171; HCC1171, Lung, growth inhibition (GI), AUC, single agent, 72 h): 3.50 | Emax (HCC1171; HCC1171, Lung, growth inhibition (GI), single agent, 72 h, read-out: Max Response (% GI)): 85% | Best CI (HCC1171; [11]): 0.22 | Bliss Volume (HCC1171; [11]): −0.99 | HSA volume (HCC1171; [11]): 2.26 | Loewe Volume (HCC1171; [11]): 3.06 | Synergy Score (HCC1171; [11]): 2.15 | Best CI Level (HCC1171; enhancer combined with MEI-522 (Voruciclib), HCC1171 (Lung), 72 hours, inhibition data, unit assumed): 50% | EC50 (TOV-21G; Homo sapiens, TOV21G, TOV-21G, Ovary, Additional Single Agent Responses (inhibition, % I), 72 h): 3000 nM | Emax (TOV-21G; Homo sapiens, TOV21G, TOV-21G, Ovary, Additional Single Agent Responses, 72 h, read-out: Max Response (% I)): 7% | Emax (TOV-21G; Homo sapiens, TOV21G, TOV-21G, Ovary, growth inhibition (GI), single agent, 72 h, read-out: Max Response (% GI)): 9% | Best CI (TOV-21G; [12]): 0.37 | Bliss Volume (TOV-21G; [12]): 2.49 | HSA volume (TOV-21G; [12]): −6.11 | Loewe Volume (TOV-21G; [12]): −3.64 | Synergy Score (TOV-21G; [12]): 0.49 | Response Area (TOV-21G; TOV-21G, Ovary, Additional Single Agent Responses (inhibition, % I), 72 h): −0.01 | Response Area (TOV-21G; TOV-21G, Ovary, growth inhibition (GI), AUC, single agent, 72 h): −0.01 | Best CI (TOV-21G; [13]): 0.45 | Best CI Level (TOV-21G; [13]): 20 | Bliss Volume (TOV-21G; [13]): 2.55 | HSA volume (TOV-21G; [13]): −4.28 | Loewe Volume (TOV-21G; [13]): −2.46 | Synergy Score (TOV-21G; [13]): 0.33
